Data published in patent US12391737B2, “Soluble NPY2 receptor agonists” (Boehringer Ingelheim International GmbH, priority 2020, dated 2025).
pKi: −log10 of the molar value.

How the values were obtained:
Solubility determination = settings: for Sol6: pH 6; for Sol7: pH 7
How it was run: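 Sample: TFA-salt peptide at 10 mg/ml target in 0.1 M Na diphosphate, pH 6.4 or 7.0, shaken 2 h RT, filtered, diluted to 1 mg/ml.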

[1] = molecular target: T1, Human Neuropeptide Y2 Receptor (Homo sapiens, UniProt P49146); assay: Radioligand binding competition assay (RLB); settings: Table 3, 125I-PYY(1-36) competition; read-out: Ki
T1 construct: purchased CHEMICON HTS066M
T1 sequence (P49146 1-381): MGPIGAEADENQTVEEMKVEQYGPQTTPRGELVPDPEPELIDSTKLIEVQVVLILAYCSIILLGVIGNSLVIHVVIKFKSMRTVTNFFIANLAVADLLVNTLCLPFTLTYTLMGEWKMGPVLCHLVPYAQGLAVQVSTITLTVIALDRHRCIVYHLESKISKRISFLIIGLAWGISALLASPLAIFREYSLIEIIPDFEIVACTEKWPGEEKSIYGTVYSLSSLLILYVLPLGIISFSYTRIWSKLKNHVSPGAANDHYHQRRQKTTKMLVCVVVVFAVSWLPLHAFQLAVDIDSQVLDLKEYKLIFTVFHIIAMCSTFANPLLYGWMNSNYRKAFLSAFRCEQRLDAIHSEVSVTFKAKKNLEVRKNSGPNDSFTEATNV
How it was run: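 Filtration binding assay on human Y2 receptor membrane preparation, 0.5 μg protein per well, in 50 mM HEPES pH 7.4 containing 5 mM MgCl2, 1 mM CaCl2 and 0.2% ovalbumin. Plates shake 2 h at room temperature before harvest and scintillation counting.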

| Structure (SMILES) | Sol6 (Solubility determination) [mg/mL] | Sol7 (Solubility determination) [mg/mL] | pKi [1] |
| --- | --- | --- | --- |
| CC[C@H](C)[C@H](NC(=O)[C@H](Cc1ccc(O)cc1)NC(=O)[C@H](Cc1ccc(O)cc1)NC(=O)[C@H](CCCNC(=N)N)NC(=O)[C@H](CCC(N)=O)NC(=O)[C@H](CC(C)C)NC(=O)[C@H](CCC(=O)O)NC(=O)[C@H](CCC(=O)O)NC(=O)[C@@H]1CCCN1C(=O)[C@H](CCC(=O)O)NC(=O)[C@H](C)NC(=O)[C@H](CC(=O)O)NC(=O)[C@H](CCC(=O)O)NC(=O)[C@H](CCC(=O)O)NC(=O)[C@@H]1CCCN1C(=O)[C@H](CCCCNC(=O)CCCCCNC(=O)CC[C@H](NC(=O)CCCCCCCCCCCCCCCCC(=O)O)C(=O)O)NC(=O)[C@H](C)NC(=O)[C@@H]1CCCN1C(=O)[C@H](C)NC(=O)CC(C)C)C(=O)N[C@@H](CO)C(=O)N[C@@H](CC(C)C)C(=O)N[C@@H](CCCNC(=N)N)C(=O)N[C@@H](Cc1c[nH]cn1)C(=O)N[C@@H](Cc1ccc(O)cc1)C(=O)N[C@@H](Cc1ccc(O)cc1)C(=O)N[C@@H](CC(N)=O)C(=O)N[C@@H](Cc1c[nH]c2ccccc12)C(=O)N[C@@H](CC(C)C)C(=O)N[C@H](C(=O)N[C@@H](CCCNC(=N)N)C(=O)N[C@@H](CCC(N)=O)C(=O)N[C@@H](CCCNC(=N)N)C(=O)N[C@@H](Cc1ccc(O)cc1)C(N)=O)[C@@H](C)O [Compound 33, N{alpha-4}-(3-methylbutanoyl)-N{epsilon-7}-(6-[(4S)-4-carboxy-4-(17-carboxyheptadecanamido)butanamido]hexanoyl)[4A,6A,7K,9E,13E,18Q,22I,28Y,30W,31L]-hPYY(4-36)] | 7.2 | 8.3 | 8.60 |
| CC[C@H](C)[C@H](NC(=O)[C@H](CCC(=O)O)NC(=O)[C@H](CCC(=O)O)NC(=O)[C@@H]1CCCN1C(=O)[C@H](CCC(=O)O)NC(=O)[C@H](C)NC(=O)[C@H](CC(=O)O)NC(=O)[C@H](C)NC(=O)[C@H](CCC(=O)O)NC(=O)[C@@H]1CCCN1C(=O)[C@H](CCCCNC(=O)CCCCCNC(=O)CC[C@H](NC(=O)CCCCCCCCCCCCCCCCC(=O)O)C(=O)O)NC(=O)[C@H](CCC(=O)O)NC(=O)[C@@H]1CCCN1C(=O)[C@H](C)NC(=O)CC(C)C)C(=O)N[C@@H](CCC(N)=O)C(=O)N[C@@H](CCCNC(=N)N)C(=O)N[C@@H](Cc1ccc(O)cc1)C(=O)N[C@@H](Cc1ccc(O)cc1)C(=O)N[C@H](C(=O)N[C@@H](C)C(=O)N[C@@H](CC(C)C)C(=O)N[C@@H](CCCNC(=N)N)C(=O)N[C@@H](Cc1c[nH]cn1)C(=O)N[C@@H](Cc1ccc(O)cc1)C(=O)N[C@@H](Cc1ccc(O)cc1)C(=O)N[C@@H](CC(N)=O)C(=O)N[C@@H](Cc1c[nH]c2ccccc12)C(=O)N[C@@H](CC(C)C)C(=O)N[C@H](C(=O)N[C@@H](CCCNC(=N)N)C(=O)N[C@@H](CCC(N)=O)C(=O)N[C@@H](CCCNC(=N)N)C(=O)N[C@@H](Cc1ccc(O)cc1)C(N)=O)[C@@H](C)O)C(C)C [Compound 131, N{alpha-4}-(3-methylbutanoyl)-N{epsilon-7}-(6-[(4S)-4-carboxy-4-(17-carboxyheptadecanamido)butanamido]hexanoyl)-[4A,7K,9E,10A,13E,17I,18Q,22V,23A,28Y,30W,31L]-hPYY(4-36)] | 10.0 | >10.0 | 8.81 |
| CC(C)CC(=O)N[C@@H](C)C(=O)N1CCC[C@H]1C(=O)N[C@@H](CCC(=O)O)C(=O)N[C@@H](CCCCNC(=O)CCCCCNC(=O)CC[C@H](NC(=O)CCCCCCCCCCCCCCCCC(=O)O)C(=O)O)C(=O)N1CCC[C@H]1C(=O)N[C@@H](CCC(=O)O)C(=O)N[C@@H](CCC(=O)O)C(=O)N[C@@H](CC(=O)O)C(=O)N[C@@H](C)C(=O)N[C@H](C(=O)N1CCC[C@H]1C(=O)N[C@@H](CCC(=O)O)C(=O)N[C@@H](CCC(=O)O)C(=O)N[C@@H](C)C(=O)N[C@@H](CCC(N)=O)C(=O)N[C@@H](CCCNC(=N)N)C(=O)N[C@@H](Cc1ccc(O)cc1)C(=O)N[C@@H](Cc1ccc(O)cc1)C(=O)N[C@H](C(=O)N[C@@H](CO)C(=O)N[C@@H](CC(C)C)C(=O)N[C@@H](CCCNC(=N)N)C(=O)N[C@@H](Cc1c[nH]cn1)C(=O)N[C@@H](Cc1ccc(O)cc1)C(=O)N[C@@H](Cc1ccc(O)cc1)C(=O)N[C@@H](CC(N)=O)C(=O)N[C@@H](Cc1c[nH]c2ccccc12)C(=O)N[C@@H](CC(C)C)C(=O)N[C@H](C(=O)N[C@@H](CCCNC(=N)N)C(=O)N[C@@H](CCC(N)=O)C(=O)N[C@@H](CCCNC(=N)N)C(=O)N[C@@H](Cc1ccc(O)cc1)C(N)=O)[C@@H](C)O)C(C)C)[C@@H](C)O [Compound 54, N{alpha-4}-(3-methylbutanoyl)-N{epsilon-7}-(6-[(4S)-4-carboxy-4-(17-carboxyheptadecanamido)butanamido]hexanoyl)-[4A,7K,9E,13T,17A,18Q,22V,28Y,30W,31L]-hPYY(4-36)] | 10.0 | 10.0 | 8.05 |
| CC(C)CC(=O)N[C@@H](C)C(=O)N1CCC[C@H]1C(=O)N[C@@H](CCC(=O)O)C(=O)N[C@@H](CCCCNC(=O)CCCCCNC(=O)CC[C@H](NC(=O)CCCCCCCCCCCCCCCCC(=O)O)C(=O)O)C(=O)N1CCC[C@H]1C(=O)N[C@@H](CCC(=O)O)C(=O)N[C@@H](CCC(=O)O)C(=O)N[C@@H](CC(=O)O)C(=O)N[C@@H](C)C(=O)N[C@H](C(=O)N1CCC[C@H]1C(=O)N[C@@H](CCC(=O)O)C(=O)N[C@@H](CCC(=O)O)C(=O)N[C@@H](CC(C)C)C(=O)N[C@@H](CCC(N)=O)C(=O)N[C@@H](CCCNC(=N)N)C(=O)N[C@@H](Cc1ccc(O)cc1)C(=O)N[C@@H](Cc1ccc(O)cc1)C(=O)N[C@H](C(=O)N[C@H](C(=O)N[C@@H](CC(C)C)C(=O)N[C@@H](CCCNC(=N)N)C(=O)N[C@@H](Cc1c[nH]cn1)C(=O)N[C@@H](Cc1ccc(O)cc1)C(=O)N[C@@H](Cc1ccc(O)cc1)C(=O)N[C@@H](CC(N)=O)C(=O)N[C@@H](Cc1c[nH]c2ccccc12)C(=O)N[C@@H](CC(C)C)C(=O)N[C@H](C(=O)N[C@@H](CCCNC(=N)N)C(=O)N[C@@H](CCC(N)=O)C(=O)N[C@@H](CCCNC(=N)N)C(=O)N[C@@H](Cc1ccc(O)cc1)C(N)=O)[C@@H](C)O)C(C)C)C(C)C)[C@@H](C)O [Compound 90, N{alpha-4}-(3-methylbutanoyl)-N{epsilon-7}-(6-[(4S)-4-carboxy-4-(17-carboxyheptadecanamido)butanamido]hexanoyl)-[4A,7K,9E,13T,18Q,22V,23V,28Y,30W,31L]-hPYY(4-36)] | 9.6 | 10.0 | 8.06 |

The remaining compounds from weak to strong by pKi [1], led by results:

| Sol6 (Solubility determination) [mg/mL] | Sol7 (Solubility determination) [mg/mL] | pKi [1] | Structure (SMILES) |
| --- | --- | --- | --- |
| 8.6 | 8.8 | 8.46 | CC(C)CC(=O)N[C@@H](C)C(=O)N1CCC[C@H]1C(=O)N[C@@H](CCC(=O)O)C(=O)N[C@@H](CCCCNC(=O)CCCCCNC(=O)CC[C@H](NC(=O)CCCCCCCCCCCCCCCCC(=O)O)C(=O)O)C(=O)N1CCC[C@H]1C(=O)N[C@@H](CCC(=O)O)C(=O)N[C@@H](CCC(=O)O)C(=O)N[C@@H](CC(=O)O)C(=O)N[C@@H](C)C(=O)N[C@H](C(=O)N1CCC[C@H]1C(=O)N[C@@H](CCC(=O)O)C(=O)N[C@@H](CCC(=O)O)C(=O)N[C@H](C(=O)N[C@@H](CCC(N)=O)C(=O)N[C@@H](CCCNC(=N)N)C(=O)N[C@@H](Cc1ccc(O)cc1)C(=O)N[C@@H](Cc1ccc(O)cc1)C(=O)N[C@H](C(=O)N[C@@H](CO)C(=O)N[C@@H](CC(C)C)C(=O)N[C@@H](CCCNC(=N)N)C(=O)N[C@@H](Cc1c[nH]cn1)C(=O)N[C@@H](Cc1ccc(O)cc1)C(=O)N[C@@H](Cc1ccc(O)cc1)C(=O)N[C@@H](CC(N)=O)C(=O)N[C@@H](Cc1c[nH]c2ccccc12)C(=O)N[C@@H](CC(C)C)C(=O)N[C@H](C(=O)N[C@@H](CCCNC(=N)N)C(=O)N[C@@H](CCC(N)=O)C(=O)N[C@@H](CCCNC(=N)N)C(=O)N[C@@H](Cc1ccc(O)cc1)C(N)=O)[C@@H](C)O)C(C)C)C(C)C)[C@@H](C)O [Compound 58, N{alpha-4}-(3-methylbutanoyl)-N{epsilon-7}-(6-[(4S)-4-carboxy-4-(17-carboxyheptadecanamido)butanamido]hexanoyl)-[4A,7K,9E,13T,17V,18Q,22V,28Y,30W,31L]-hPYY(4-36)] |
| 6.5 | >10.0 | 8.47 | CC(C)CC(=O)N[C@@H](C)C(=O)N1CCC[C@H]1C(=O)N[C@@H](CCC(=O)O)C(=O)N[C@@H](CCCCNC(=O)CCCCCNC(=O)CC[C@H](NC(=O)CCCCCCCCCCCCCCCCC(=O)O)C(=O)O)C(=O)N1CCC[C@H]1C(=O)N[C@@H](CCC(=O)O)C(=O)N[C@@H](C)C(=O)N[C@@H](C)C(=O)N[C@@H](C)C(=O)N[C@@H](CCC(=O)O)C(=O)N1CCC[C@H]1C(=O)N[C@@H](CCC(=O)O)C(=O)N[C@@H](CCC(=O)O)C(=O)N[C@@H](CC(C)C)C(=O)N[C@@H](CCC(N)=O)C(=O)N[C@@H](CCCNC(=N)N)C(=O)N[C@@H](Cc1ccc(O)cc1)C(=O)N[C@@H](Cc1ccc(O)cc1)C(=O)N[C@H](C(=O)N[C@@H](C)C(=O)N[C@@H](CC(C)C)C(=O)N[C@@H](CCCNC(=N)N)C(=O)N[C@@H](Cc1c[nH]cn1)C(=O)N[C@@H](Cc1ccc(O)cc1)C(=O)N[C@@H](Cc1ccc(O)cc1)C(=O)N[C@@H](CC(N)=O)C(=O)N[C@@H](Cc1c[nH]c2ccccc12)C(=O)N[C@@H](CC(C)C)C(=O)N[C@H](C(=O)N[C@@H](CCCNC(=N)N)C(=O)N[C@@H](CCC(N)=O)C(=O)N[C@@H](CCCNC(=N)N)C(=O)N[C@@H](Cc1ccc(O)cc1)C(N)=O)[C@@H](C)O)C(C)C [Compound 127, N{alpha-4}-(3-methylbutanoyl)-N{epsilon-7}-(6-[(4S)-4-carboxy-4-(17-carboxyheptadecanamido)butanamido]hexanoyl)-[4A,7K,9E,10A,11A,13E,18Q,22V,23A,28Y,30W,31L]-hPYY(4-36)] |
